pIC50: −log10 of the molar value. In brackets after ≈: the same amount, converted by molar mass. Read-outs that look alike come from different tables or passages of the source.
Columns and labels:
[1] = system: murine melanoma cells B16-F1; experiment: Melanin production by murine melanoma cells B16-F1; type: cell-based; details: Mus musculus, B16-F1, 1 nM α-MSH, 48 hours
Description: Selected compounds were then tested for the ability to suppress melanin production by the murine melanoma cells B16-F1 as detailed below.
Murine melanoma cells B16-F1 were purchased from the ATCC (Cat #CRL-6323). Cell Titer96 AqueousOne Solution was purchased from Promega (Cat #G3582). 0.2 μm pore size, low protein binding filters were purchased from PALL Life Sciences. (Cat #PN4454).
Alpha-MSH was purchased from the Sigma Aldrich (Cat #M4135-1MG). All tissue culture reagents were purchased from VWR (phenol-red-free DMEM, cat #12001-630, L-glutamine, cat #12001-698) and Fisher Scientific (Trypsin-EDTA, cat #25-200-056).
The B16-F1 cells were maintained in cell growth media (DMEM/High Glucose supplemented with glutamine, 10% fetal bovine serum, 50 units/ml penicillin, and 50 units/mL of streptomycin) at 37° C. in a humidified atmosphere of 95% air and 5% CO2.
All test compounds were initially dissolved in 100% DMSO at a concentration of 400 mM. Then, 6 μL of 400 mM test compounds were added to 1.2 mL of the cell growth media giving a final concentration of 2 mM for the test compound and concentration of 0.5% for DMSO. The compounds were centrifuged for 1 h at 20,000×g. Supernatants (1 mL) were collected and filtered through sterile 0.2 μm filters. The compounds were serially diluted in two-fold increments in the sterile cell growth media supplemented with 0.5% DMSO, thus keeping the concentration of DMSO constant for all samples. These serially diluted compounds were subsequently used as two-fold concentrated stock solutions in the melanin production and cell viability assays. Equal volumes of 2× compounds were mixed with media containing 2 nM α-MSH to give a final concentration of 1 nM α-MSH, 0.5% DMSO, and 1× concentration of test compounds.
B16-F1 cells were seeded into the wells of clear-bottom 24-well plates at 50,000 cells per well, in 0.5 mL of cell growth media. On the following day, 0.5 mL of freshly prepared test compounds containing α-MSH were added to the wells. The cells were maintained at 37° C. in a humidified atmosphere of 95% air and 5% CO2 for 48 hours. At the end of the incubation period, melanin-containing conditioned media was removed from the cells and transferred to another plate. To measure melanin content the light absorbance of conditioned media was taken at 492 nm using a TECAN Genios plate reader.
More than 90% percent of the melanin produced by cultured melanoma cells is found in extra-cellular media. Therefore, at the end of the experiment melanin-containing media was collected and relative amounts of melanin were determined by absorption at 492 nm. Viability of cells was determined by a commonly used colorimetric procedure that is based on conversion of the tetrazolium compounds to colored formazan products (using Promega's CellTiter96 AqueousOne assay). Dehydrogenase enzymes in metabolically active cells accomplish this conversion, and the amount of formazan product is directly proportional to the number of living cells in culture. Mean (n=2) absorption of wells containing no cells was subtracted as blanks. The results were computed as percent of wells that contained the cells but no test compounds.

[2] = system: Propionibacterium acnes (ATCC11827); experiment: P-acne MIC/MBC test; type: cell-based; details: for MIC: lowest level that inhibits growth, turbidity, 1 day
Description: The anti-microbial activity of the tested compounds were evaluated using published methods (Modugno e. al. (1994) Antimicrobial agents and Chemotherapy 38: 2362-2368; […] et. al. (1973) Antimicrobial agents and Chemotherapy 3: 40-48. Propionibacterium acnes (ATCC11827) was cultured for 20 hours at 37° C. in Reinforced Clostridal medium. The test article and positive control were dissolved in 1% DMSO with an incubation volume of 1 mL. The time of assessment was 1 day. Measurement of turbidity was used as the method of quantification. The compounds were tested in duplicate at concentrations of 250 ug/mL, 125 ug/mL, 62 ug/mL, 31 ug/mL, 16 ug/mL, 8 ug/mL, 4 ug/mL, 2 ug/mL relative to positive control ampicillin at 0.1 ug/mL.

COX-1 = target: T1, COX-1 (Ovis aries, UniProt P05979); experiment: COX-1 enzymatic inhibition assay; type: biochemical; details: for pIC50: read-out: Anti-inflammatory (IC50) COX-1
T1 construct: purchased Cayman Chemical 701050
T1 sequence (P05979 25-600): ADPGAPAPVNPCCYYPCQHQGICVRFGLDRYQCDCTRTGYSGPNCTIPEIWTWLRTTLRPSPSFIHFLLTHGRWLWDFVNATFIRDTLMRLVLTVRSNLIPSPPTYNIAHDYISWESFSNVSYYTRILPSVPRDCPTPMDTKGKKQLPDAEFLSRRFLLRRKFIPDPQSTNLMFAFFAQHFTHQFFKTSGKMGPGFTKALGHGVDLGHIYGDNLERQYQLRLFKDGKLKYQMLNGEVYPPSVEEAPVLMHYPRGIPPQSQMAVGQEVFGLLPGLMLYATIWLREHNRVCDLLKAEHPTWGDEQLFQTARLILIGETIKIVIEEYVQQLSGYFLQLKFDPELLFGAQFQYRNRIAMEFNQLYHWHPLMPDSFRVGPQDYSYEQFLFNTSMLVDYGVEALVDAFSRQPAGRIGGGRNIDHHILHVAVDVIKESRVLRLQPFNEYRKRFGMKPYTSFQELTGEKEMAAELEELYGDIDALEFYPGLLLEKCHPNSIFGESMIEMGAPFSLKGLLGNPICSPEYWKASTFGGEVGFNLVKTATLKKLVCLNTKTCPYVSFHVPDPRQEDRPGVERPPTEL
Description: In order to screen for compounds that inhibited COX-1 and Cox-2 activity, enzymatic inhibition assay kits were purchased from Cayman Chemical (cat #701050). Briefly, the compound being examined was treated against a fixed amount of COX-1 and COX-2 enzymes. A cleavable, peroxide chromophore was included in the assay to visualize the peroxidase activity of each enzyme in presence of arachidonic acid as […]. Typically, assays were performed in 96-well format. Each inhibitor, taken from a 1 M stock solution in 100% DMSO, was tested in duplicate at room temperature using the following range of concentrations: 1.9, 3.9, 7.8, 15.6, 31.2, 62.5, 125, 250, 500, and 1000 μM. To each well, 150 μL of Assay Buffer was added along with 10 μL of Hemin, 10 μL of inhibitor diluted in DMSO and 10 μL of either COX-1 or COX-2 enzyme. The compounds were incubated for 5 minutes at room temperature, followed by the addition of 20 μL of Colormietric Substrate solution and 20 μL of arachidonic acid solution to initiate the reaction. The plate was mixed and incubated for 2 minutes before reading the absorbance at 590 nm. The inhibitor concentration vs. % of inhibition was plotted and the IC50 determined.

[3] = FIGS. 2-8, read-out: IC50, inhibition in the production of melanin
[4] = Tables 1-3, read-out: MELANIN PRODUCTION
[5] = Cutibacterium acnes, ATCC11827, 24 h, read-out: MIC
[6] = Cutibacterium acnes, ATCC11827, lowest concentration required to kill the bacterium, read-out: MBC

Anti-inflammatory (IC50) COX-1 (COX-1)	SMILES	pIC50 [1, 3]	pIC50 [1, 4]	MIC [2, 5]	MBC [2, 6]	MBC ([2]; lowest concentration required to kill the bacterium)	MIC [2]	pIC50 (COX-1)
–	CC(C)=CCCC(C)=Cc1ccc(O)cc1 (mixture of isomers) [Compound 1, (E/Z)-4-(2,6-dimethylhepta-1,5-dienyl)phenol]	3.80	3.80	< 3.9 µg/mL	< 3.9 µg/mL	<3.9 ppm	<3.9 ppm	3.91
–	CC(C)=CCC/C(C)=C/c1cc(O)cc(O)c1 [Compound 4, (E/Z)-5-(2,6-dimethylhepta-1,5-dienyl)benzene-1,3-diol]	4.14	4.14	< 3.9 µg/mL	< 3.9 µg/mL	–	–	4.19
No Inhibition	CC(C)=CCCC(C)/C=C/c1ccc(O)cc1 (stereo not drawn) [Compound 5, (E)-4-(3,7-dimethylocta-1,6-dienyl)phenol]	–	4.14	< 3.9 µg/mL	–	–	–	–
–	CC(C)=CCCC(C)/C=C/c1ccc(O)cc1O (stereo not drawn) [Compound 6, (E)-4-(3,7-dimethylocta-1,6-dienyl) benzene-1,3-diol]	5.05	5.05	3.9 µg/mL (≈ 15.8 µM)	3.9 to 31.3 µg/mL (≈ 15.8 to 127 µM)	–	–	4.13
–	CC(C)=CCCC(C)/C=C/c1cc(O)cc(O)c1 (stereo not drawn) [Compound 7, (E)-5-(3,7-dimethylocta-1,6-dienyl) benzene-1,3-diol]	4.01	4.01	7.8 µg/mL (≈ 31.7 µM)	7.8 to 31.3 µg/mL (≈ 31.7 to 127 µM)	–	–	4.60
–	CC(C)=CCCC(C)C/C=C\c1cc(O)cc(O)c1 (stereo not drawn) [Compound 15, (Z)-5-(4,8-dimethylnona-1,7-dienyl) benzene-1,3-diol]	4.13	3.80	< 3.9 µg/mL	< 3.9 µg/mL	–	–	3.91

— patent publication US12358859B2, “Series of compounds for treatment of skin diseases and other conditions” (Unigen, Inc., priority 2018, dated 2025)
